One test deals with T1, hα2A receptor (Homo sapiens, UniProt P08913).
T1 construct: expressed in transfected cells
T1 sequence (P08913 1-465): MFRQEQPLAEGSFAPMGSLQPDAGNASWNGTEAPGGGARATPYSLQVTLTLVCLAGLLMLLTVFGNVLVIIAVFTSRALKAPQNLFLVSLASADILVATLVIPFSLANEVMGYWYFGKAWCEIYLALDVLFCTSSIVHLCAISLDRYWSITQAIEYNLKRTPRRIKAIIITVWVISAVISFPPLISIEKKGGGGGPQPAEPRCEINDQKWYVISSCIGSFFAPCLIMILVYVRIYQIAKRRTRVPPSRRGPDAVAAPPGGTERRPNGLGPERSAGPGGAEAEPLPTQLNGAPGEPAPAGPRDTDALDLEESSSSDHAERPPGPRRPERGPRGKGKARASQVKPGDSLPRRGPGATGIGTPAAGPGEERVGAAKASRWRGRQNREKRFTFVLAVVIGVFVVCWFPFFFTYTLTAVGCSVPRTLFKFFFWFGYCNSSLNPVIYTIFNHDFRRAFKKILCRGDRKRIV
The test can be described thus: Radioligand binding experiment for hα2A receptor ([3H]-raulwolscine). Conditions: membranes of CHO cells expressing human α2A receptor, [3H]raulwolscine 1 nM; for IC50: read-out: hα2A pIC50 (converted). As for the experimental part: (§1) The interaction of the compounds of Formula (I) with hα2-receptors and h5-HT-transporters was assessed in in vitro radioligand binding experiments. In general, a low concentration of a radioligand with a high binding affinity for a particular receptor or transporter is incubated with a sample of a tissue preparation enriched in a particular receptor or transporter or with a preparation of cells expressing cloned human receptors in a buffered medium. During the incubation, the radioligand binds to the receptor or transporter. When equilibrium of binding is reached, the receptor bound radioactivity is separated from the non-bound radioactivity, and the receptor- or transporter-bound activity is counted. The interaction of the test compounds with the receptor is assessed in competition binding experiments. Various concentrations of the test compound are added to the incubation mixture containing the receptor- or transporter preparation and the radioligand. The test compound in proportion to its binding affinity and its concentration inhibits binding of the radioligand. The radioligand used for hα2A, hα2B and hα2C receptor binding was [^3H]-raulwolscine and for the h5-HT transporter was [^3H]paroxetine.
(§2) CHO cells, stabile transfected with human adrenergic-α2A-, -α2B or α2C receptor cDNA, were cultured in Dulbecco's Modified Eagle's Medium (DMEM)/Nutrient mixture Ham's F12 (ratio 1:1)(Gibco, Gent-Belgium) supplemented with 10% heat inactivated fetal calf serum (Life Technologies, Merelbeke-Belgium) and antibiotics (100 IU/ml penicillin G, 100 μg/ml streptomycin sulphate, 110 μg/ml pyruvic acid and 100 μg/ml L-glutamine). One day before collection, cells were induced with 5 mM sodiumbutyrate. Upon 80–90% of confluence, cells were scraped in phosphate buffered saline without Ca^2+ and Mg^2+ and collected by centrifugation at 1500×g for 10 min. The cells were homogenised in Tris-HCl 50 mM using an Ultraturrax homogenizer and centrifuged for 10 min at 23,500×g. The pellet was washed once by resuspension and rehomogenization and the final pellet was resuspended in Tris-HCl, divided in 1 ml aliquots and stored at −70° C.
(§3) Membranes were thawed and re-homogenized in incubation buffer (glycylglycine 25 mM, pH 8.0). […] Filters were rinsed extensively with ice-cold rinsing buffer (Tris-HCl 50 mM pH 7.4). Filter-bound radioactivity was determined by scintillation counting in a Topcount (Packard, Meriden, Conn.) and results were expressed as counts per minute (cpm). Non-specific binding was determined in the presence of 1 μM oxymetazoline for hα2A- and hα2B receptors and 1 μM spiroxatrine for hα2C receptors.
(§4) Data from assays in the presence of compound were calculated as a percentage of total binding measured in the absence of test compound. Inhibition curves, plotting percent of total binding versus the log value of the concentration of the test compound, were automatically generated, and sigmoidal inhibition curves were fitted using non-linear regression. The pIC50 values of test compounds were derived from individual curves.

Another test has as its target T2, hα2B receptor (Homo sapiens, UniProt P18089).
T2 construct: expressed in transfected cells
T2 sequence (P18089 1-450): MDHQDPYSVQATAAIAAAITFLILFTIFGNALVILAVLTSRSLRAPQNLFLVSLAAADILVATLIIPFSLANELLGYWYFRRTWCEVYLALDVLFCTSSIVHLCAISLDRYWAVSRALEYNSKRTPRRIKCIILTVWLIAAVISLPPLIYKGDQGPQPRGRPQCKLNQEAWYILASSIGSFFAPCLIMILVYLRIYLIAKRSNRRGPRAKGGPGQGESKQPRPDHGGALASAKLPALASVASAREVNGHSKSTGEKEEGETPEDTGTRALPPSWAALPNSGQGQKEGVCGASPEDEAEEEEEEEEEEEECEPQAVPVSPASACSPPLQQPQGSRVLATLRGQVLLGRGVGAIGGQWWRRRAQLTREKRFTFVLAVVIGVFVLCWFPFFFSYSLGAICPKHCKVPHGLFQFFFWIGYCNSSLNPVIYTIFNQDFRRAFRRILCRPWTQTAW
The test can be described thus: Radioligand binding experiment for hα2B receptor ([3H]-raulwolscine). Conditions: membranes of CHO cells expressing human α2B receptor, [3H]raulwolscine 1 nM; for IC50: read-out: hα2B pIC50 (converted). Here is the method: as §1, §2, §3, §4

The next test addresses T3, hα2C receptor (Homo sapiens, UniProt P18825).
T3 construct: expressed in transfected cells
T3 sequence (P18825 1-462): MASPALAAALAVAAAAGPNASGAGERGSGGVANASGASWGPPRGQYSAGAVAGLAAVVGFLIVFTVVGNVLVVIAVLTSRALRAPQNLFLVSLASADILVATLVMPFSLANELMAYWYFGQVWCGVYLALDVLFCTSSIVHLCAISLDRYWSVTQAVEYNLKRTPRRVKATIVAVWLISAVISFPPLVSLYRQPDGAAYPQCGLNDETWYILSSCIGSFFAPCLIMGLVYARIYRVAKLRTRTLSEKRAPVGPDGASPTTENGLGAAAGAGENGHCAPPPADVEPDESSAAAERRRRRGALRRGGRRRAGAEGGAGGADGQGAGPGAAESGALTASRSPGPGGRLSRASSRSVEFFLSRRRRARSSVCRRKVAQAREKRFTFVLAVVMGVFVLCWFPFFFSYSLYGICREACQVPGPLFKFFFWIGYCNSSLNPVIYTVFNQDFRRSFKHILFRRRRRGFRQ
The test is described as follows: Radioligand binding experiment for hα2C receptor ([3H]-raulwolscine). To be noted: membranes of CHO cells expressing human α2C receptor, [3H]raulwolscine 1 nM; for IC50: read-out: hα2C pIC50 (converted). As for the experimental part:
as §1, §2, §3, §4

A further test has as its target T4, h5-HT transporter (Homo sapiens, UniProt P31645).
T4 construct: Human platelet membranes (Oceanix Biosciences Corporation, Hanover, Md., USA) were thawed; tissue Oceanix Biosciences Corporation, Hanover, Md., USA; host or cells: human platelet membranes
The test can be described thus: Radioligand binding experiment for 5-HT transporter ([3H]paroxetine, human platelet membranes). Conditions: human platelet membranes, [3H]paroxetine 0.5 nM; for IC50: read-out: 5HTT pIC50 (converted). Here is the method:
as §1
Human platelet membranes (Oceanix Biosciences Corporation, Hanover, Md., USA) were thawed, diluted in buffer (Tris-HCl 50 mM, 120 mM NaCl and 5 mM KCl) and quickly (max 3 s) homogenised with an Ultraturrax homogenizer. […] Filters were rinsed extensively with ice-cold buffer and radioactivity on the filters was counted in a Topcount liquid scintillation counter (Packard, Meriden, Conn.). Data were expressed as cpm. Imipramine (at 1 μM final concentration) was used to determine the non-specific binding.
as §4

This is an account of results in patent US7169786B2, “Isoxazoline derivatives as anti-depressants” (priority 2001, dated 2007).

T4 sequence (P31645 whole entry): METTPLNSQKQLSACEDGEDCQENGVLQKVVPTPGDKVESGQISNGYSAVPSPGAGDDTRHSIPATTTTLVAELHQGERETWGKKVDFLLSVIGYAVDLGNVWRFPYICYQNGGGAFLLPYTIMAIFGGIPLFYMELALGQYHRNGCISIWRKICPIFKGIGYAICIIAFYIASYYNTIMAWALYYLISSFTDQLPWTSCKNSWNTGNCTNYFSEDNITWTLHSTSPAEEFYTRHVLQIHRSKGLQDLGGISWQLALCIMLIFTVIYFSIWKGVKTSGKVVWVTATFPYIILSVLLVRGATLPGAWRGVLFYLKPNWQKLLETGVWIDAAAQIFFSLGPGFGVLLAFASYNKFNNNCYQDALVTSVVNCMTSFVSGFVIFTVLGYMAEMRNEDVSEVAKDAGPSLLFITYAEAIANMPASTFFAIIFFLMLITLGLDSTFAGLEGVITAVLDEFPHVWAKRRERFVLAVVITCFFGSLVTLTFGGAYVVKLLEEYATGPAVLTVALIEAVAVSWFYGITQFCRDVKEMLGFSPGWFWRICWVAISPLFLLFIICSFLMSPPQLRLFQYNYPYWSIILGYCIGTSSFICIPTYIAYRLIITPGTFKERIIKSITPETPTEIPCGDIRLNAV

As to `C(=Cc1ccccc1)CN1CCN(CC2ON=C3c4cc5c(cc4OCC32)OCC5)CC1` (racemic) [Compound 279], the “hα2A pIC50” value at hα2A receptor worked out at 8.45. Further, the “hα2B pIC50” value at hα2B receptor was found to be 8.03. Moreover, the “hα2C pIC50” value at hα2C receptor was 8.24. The “5HTT pIC50” value at h5-HT transporter worked out at 7.45.
`COc1cc2c(cc1OC)C1=NOC(CN(C)C3CCN(Cc4ccc5ccccc5c4)CC3)C1CO2` (racemic) [Compound 281]: the “hα2A pIC50” value on hα2A receptor came to 7.05. For the same compound, at hα2B receptor, the “hα2B pIC50” value is on record as 7.19. For the same compound, the “hα2C pIC50” value at hα2C receptor is 7.31. Besides, the “5HTT pIC50” value at h5-HT transporter is listed as 7.25.
Taken in the same sequence, the figures for `COc1cc2c(cc1OC)C1=NOC(CN(C=O)C3CCN(Cc4ccc5ccccc5c4)CC3)C1CO2` (racemic) [Compound 282] were 7.66, 7.26, 7.64 and 8.06.
For `COc1cc2c(cc1OC)C1=NOC(CN3CCN(C/C=C/C=C/c4ccccc4)CC3)C1CO2` (single isomer, unassigned) [Compound 127], the IC50 at hα2A receptor was 141 nM; on hα2B receptor, 123 nM; on hα2C receptor, 25.7 nM; at h5-HT transporter, 63.1 nM.
`COc1cc2c(cc1OC)C1=NOC(CN3CCN(C/C=C/c4ccc(F)cc4F)CC3)C1CO2` (single isomer, unassigned) [Compound 185]: the IC50 at hα2A receptor was 145 nM; on hα2B receptor, 77.6 nM; on hα2C receptor it was 29.5 nM; on h5-HT transporter, 12.6 nM.
In the same order, the values of `COc1cc2c(cc1OC)C1=NOC(CN3CCN(C/C=C/c4ccsc4)CC3)C1CO2` (single isomer, unassigned) [Compound 314] are 11.2 nM, 6.92 nM, 6.46 nM and 8.71 nM.
For `COc1cc2c(cc1OC)C1=NOC(CN3CCN(C(C)/C=C/c4ccccc4)CC3)C1CO2` (single isomer, unassigned) [Compound 316], the IC50 is 10.5 nM on hα2A receptor, 174 nM at hα2B receptor, 120 nM on hα2C receptor and 407 nM on h5-HT transporter.
Take `COc1cc2c(cc1OC(C)=O)C1=NOC(CN3CCN(C/C(C)=C/c4ccccc4)CC3)C1CO2` (single isomer, unassigned) [Compound 333]: the IC50 at hα2A receptor was 4.79 nM; on hα2B receptor it was 3.8 nM; at hα2C receptor, 4.68 nM; at h5-HT transporter, 30.2 nM.
As for `C(=Cc1ccccc1)CN1CCN(CC2ON=C3c4ccccc4CCC32)CC1` (stereo not shown) [Comp 218], the IC50 is 182 nM on hα2A receptor, 132 nM at hα2B receptor, 1260 nM on hα2C receptor and 457 nM at h5-HT transporter.
In the same order, the values of `COc1ccc2c(c1)CCC1C2=NOC1CN1CCN(CC=Cc2ccccc2)CC1` (stereo not shown) [Comp 220] are 7.59 nM, 14.1 nM, 43.7 nM and 66.1 nM.
Taken in the same sequence, the figures for `COc1cc2c(cc1O)OCC1C2=NOC1CN1CCN(C/C(C)=C/c2ccccc2)CC1` (stereo not shown) [Compound 3] were 2.34 nM, 2.57 nM, 1.86 nM and 16.2 nM.
Taken in the same sequence, the figures for `COc1cc2c(cc1OC)C1=NOC(CN3CCN(Cc4cccc(Cl)c4)CC3)C1CO2` (stereo not shown) [Compound 14] were 427 nM, 646 nM, 263 nM and 363 nM.
With `COc1cc2c(cc1OC)C1=NOC(CN3CCN(CC4=Cc5ccccc5CC4)CC3)C1CO2` (stereo not shown) [Compound 21], the IC50 is 1.62 nM on hα2A receptor, 18.6 nM on hα2B receptor, 1.05 nM on hα2C receptor and 1.2 nM at h5-HT transporter.
For the compound `COc1ccccc1C=CCN1CCN(CC2ON=C3c4cc(OC)c(OC)cc4OCC32)CC1` (stereo not shown) [Compound 41], the IC50 on hα2A receptor was 15.8 nM; on hα2B receptor, 5.01 nM; on hα2C receptor, 12.6 nM.
Turning to `COc1cc2c(cc1OC)C1=NOC(CN3CCN(CC(C)=Cc4cccc5ccccc45)CC3)C1CO2` (stereo not shown) [Compound 157], the IC50 was 13.5 nM at hα2A receptor, 52.5 nM on hα2B receptor and 74.1 nM on hα2C receptor.
In the same order, the values of `COc1cc2c(cc1OC)C1=NOC(CN3CCN(CC(C)=Cc4cccc(F)c4)CC3)C1CO2` (stereo not shown) [Compound 195] are 4.57 nM, 1.58 nM and 2.09 nM.
Take `COc1cc2c(cc1OC)C1=NOC(CN3CCN(CC(C)=Cc4ccc(F)cc4)CC3)C1CO2` (stereo not shown) [Compound 196]: the IC50 on hα2A receptor was 14.5 nM; on hα2B receptor, 3.63 nM; at hα2C receptor, 8.13 nM.
Regarding `COc1cc2c(cc1OC)C1=NOC(CN3CCN(CC(C)=Cc4cc(F)ccc4F)CC3)C1CO2` (stereo not shown) [Compound 199], the IC50 at hα2A receptor is 1.2 nM; at hα2B receptor, 1 nM; on hα2C receptor, 1.66 nM.
Taken in the same sequence, the figures for `COc1ccccc1C=C(C)CN1CCN(CC2ON=C3c4cc(OC)c(OC)cc4OCC32)CC1` (stereo not shown) [Compound 201] were 4.37 nM, 3.24 nM and 4.57 nM.
Turning to `COc1cc2c(cc1F)C1=NOC(CN3CCN(CC(C)=Cc4ccccc4)CC3)C1CO2` (stereo not shown) [Compound 241], the figures for the IC50 at hα2A receptor, on hα2B receptor and at hα2C receptor were 16.6 nM, 7.41 nM and 6.31 nM, respectively.
